We go through ten molecules from paper PMC6990405, “Synthesis and Structure–Activity relationship of 1-(5-isoquinolinesulfonyl)piperazine analogues as inhibitors of Mycobacterium tuberculosis IMPDH” (European Journal of Medicinal Chemistry, 2019).

Test [1] has as its system M. tuberculosis SRMV2.6 (IMPDH Tyr487Cys). The test is classed as cell-based, Mycobacterium tuberculosis.
Test [2] concerns M. tuberculosis guaB2 cKD mutant. The test is classed as cell-based. The settings on record: increase in potency against guaB2 cKD mutant upon guaB2 silencing.

Converted amounts (≈) assume the structure as drawn.

Regarding `Cc1ccccc1CNC(=O)N1CCN(S(=O)(=O)c2cccc3cnccc23)CC1` [Compound 48, 4-(isoquinolin-5-ylsulfonyl)-N-(2-methylbenzyl)piperazine-1-carboxamide], the “MIC90 against SRMV2.6” value in test [1] was found to be 15.6 µM (≈ 6.62 µg/mL). For the same molecule, in test [2], the “Hyper-sensitivity to guaB2 cKD” value is on record as 16–32-fold.

For the molecule `O=C(Nc1ccc2c(c1)OCO2)N1CCCN(S(=O)(=O)c2cccc3cnccc23)CC1` [Compound 44, 4-(isoquinoline-5-sulfonyl)-N-(2H-1,3-benzodioxol-5-yl)-1,4-diazepane-1-carboxamide], the “MIC90 against SRMV2.6” value in test [1] is greater than 100 µM. Also, in test [2], the “Hyper-sensitivity to guaB2 cKD” value is listed as 8–16-fold.

Regarding `COc1cccc(CNC(=O)N2CCN(S(=O)(=O)c3cccc4cnccc34)CC2)c1` [Compound 47, 4-(isoquinolin-5-ylsulfonyl)-N-(3-methoxybenzyl)piperazine-1-carboxamide], the “Hyper-sensitivity to guaB2 cKD” value in test [2] is reported as 8-fold.

Consider `CC1CN(S(=O)(=O)c2cccc3cnccc23)CCN1C(=O)Nc1ccc2c(c1)OCO2` (stereo not shown) [Compound 45, N-(benzo[d][1,3]dioxol-5-yl)-4-(isoquinolin-5-ylsulfonyl)-2-methylpiperazine-1-carboxamide], for which the “MIC90 against SRMV2.6” value in test [1] is greater than 100 µM. Besides, the “Hyper-sensitivity to guaB2 cKD” value in test [2] was 8–16-fold.

For `CC1CCCCC1C(=O)N1CCN(S(=O)(=O)c2cccc3cnccc23)CC1` (stereo not shown) [Compound 13, [4-(isoquinoline-5-sulfonyl)piperazin-1-yl](2-methylcyclohexyl)methanone], the “MIC90 against SRMV2.6” value in test [1] is greater than 250 µM. For the same molecule, the “Hyper-sensitivity to guaB2 cKD” value in test [2] was 16–32-fold.

Consider `O=C(CC1CCCCC1)N1CCN(S(=O)(=O)c2cccc3cnccc23)CC1` [Compound 22, 2-Cyclohexyl-1-(4-(isoquinolin-5-ylsulfonyl)piperazin-1-yl)ethan-1-one], for which, in test [1], the “MIC90 against SRMV2.6” value was greater than 250 µM. Further, the “Hyper-sensitivity to guaB2 cKD” value in test [2] was 16-fold.

Consider `O=C(c1cccc([N+](=O)[O-])c1)N1CCN(S(=O)(=O)c2cccc3cnccc23)CC1` [Compound 18, [4-(isoquinoline-5-sulfonyl)piperazin-1-yl](3-nitrophenyl)methanone], for which the “MIC90 against SRMV2.6” value in test [1] came to 50 µM (≈ 21.3 µg/mL). Further, the “Hyper-sensitivity to guaB2 cKD” value in test [2] is 8-fold.

As to `O=C(C1CCCCCC1)N1CCN(S(=O)(=O)c2cccc3cnccc23)CC1` [Compound 14, Cycloheptyl[4-(isoquinoline-5-sulfonyl)piperazin-1-yl]methanone], in test [1], the “MIC90 against SRMV2.6” value is greater than 250 µM. Besides, in test [2], the “Hyper-sensitivity to guaB2 cKD” value is on record as 16-fold.

As to `O=C(NCc1ccccc1)N1CCN(S(=O)(=O)c2cccc3cnccc23)CC1` [Compound 46, N-benzyl-4-(isoquinolin-5-ylsulfonyl)piperazine-1-carboxamide], the “MIC90 against SRMV2.6” value in test [1] was greater than 100 µM. The “Hyper-sensitivity to guaB2 cKD” value in test [2] is 8-fold.

As to `O=C(C1CCCCC1)N1CCN(S(=O)(=O)c2cccc3cnccc23)CC1` [Compound 1, Cyclohexyl[4-(isoquinoline-5-sulfonyl)piperazin-1-yl]methanone], the “MIC90 against SRMV2.6” value in test [1] came to 250 µM (≈ 96.9 µg/mL). Further, the “Hyper-sensitivity to guaB2 cKD” value in test [2] is “∼32-fold”.
